Experimental data: ChEMBL document CHEMBL2169834, “Toward rational fragment-based lead design without 3D structures” (J Med Chem, 2012)
pKd: −log10 of the molar value. Activity calls are given as the source filed them. The rule behind the calls is not given here.

Assays:
[1] = target: T1, Catenin beta-1 (Homo sapiens) (UniProt P35222); experiment: Binding affinity to human beta-catenin at 1 mM by 1H-STD NMR analysis
T1 sequence (whole entry): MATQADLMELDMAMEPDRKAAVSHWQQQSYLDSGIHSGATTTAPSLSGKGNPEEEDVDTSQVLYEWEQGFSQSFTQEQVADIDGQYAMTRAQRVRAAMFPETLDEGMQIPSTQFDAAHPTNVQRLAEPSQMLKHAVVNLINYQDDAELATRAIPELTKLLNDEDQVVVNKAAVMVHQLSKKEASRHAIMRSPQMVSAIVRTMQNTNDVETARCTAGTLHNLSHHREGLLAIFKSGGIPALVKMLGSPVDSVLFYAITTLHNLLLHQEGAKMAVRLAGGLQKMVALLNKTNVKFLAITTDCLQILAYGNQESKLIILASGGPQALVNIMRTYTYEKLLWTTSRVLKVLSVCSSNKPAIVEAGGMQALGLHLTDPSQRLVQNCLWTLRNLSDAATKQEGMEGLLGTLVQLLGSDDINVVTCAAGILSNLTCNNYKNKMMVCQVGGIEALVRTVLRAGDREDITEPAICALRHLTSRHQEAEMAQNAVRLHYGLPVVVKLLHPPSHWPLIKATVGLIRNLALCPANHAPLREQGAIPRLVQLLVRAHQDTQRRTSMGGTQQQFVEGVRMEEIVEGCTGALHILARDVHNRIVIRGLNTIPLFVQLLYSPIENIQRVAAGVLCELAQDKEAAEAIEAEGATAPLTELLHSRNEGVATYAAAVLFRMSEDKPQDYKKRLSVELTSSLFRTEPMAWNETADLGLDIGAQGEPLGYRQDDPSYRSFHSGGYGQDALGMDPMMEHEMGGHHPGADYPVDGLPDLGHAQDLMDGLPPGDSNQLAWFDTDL

[2] = Binding affinity to quail lipocalin Q83 at 200 uM by tryptophan fluorescence quenching experiment; design: species or system Galliformes
Galliformes = experiment: Binding affinity to quail lipocalin Q83 by 1H-15N HSQC-based NMR analysis
[3] = Binding affinity to quail lipocalin Q83 assessed as second molecule binding at 2:1 compound:protein ratio by […]; design: species or system Galliformes
[4] = Binding affinity to quail lipocalin Q83 assessed as first molecule binding at 2:1 compound:protein ratio by […]; design: species or system Galliformes

SMILES	Activity [1]	pKd [2]	Activity (Galliformes)	pKd [3]	pKd [4]
O=C1OC2(c3ccc(O)cc3Oc3cc(O)ccc32)c2ccccc21	Active				
Nc1ccc(/N=N/c2ccc(S(=O)(=O)O)cc2)cc1S(=O)(=O)O		4.60	Active		
Cc1c(Br)cc2c(-c3ccccc3C(=O)O)c3cc(Br)c(=O)c(Br)c-3oc2c1Br	Active				
COc1cc(C(=O)O)ccc1O [VANILLIC ACID]			Active	1.15	3.30
